Source: patent publication US8791132B2, “Compounds and methods for treatment of hypertension” (Medivation Technologies, Inc., priority 2011, dated 2014)

Experiments:
[1] = biological target: T1, human recombinant adrenergic α2B receptor (Homo sapiens, UniProt P18089); test: Radioligand binding, adrenergic α2B ([3H]Rauwolscine); settings: compound at 0.03 μM; [3H]Rauwolscine; repeat datapoints each shown; 0.03 µM
T1 construct: expressed in transfected cells; host or cells: CHO-K1
T1 sequence (P18089 1-450): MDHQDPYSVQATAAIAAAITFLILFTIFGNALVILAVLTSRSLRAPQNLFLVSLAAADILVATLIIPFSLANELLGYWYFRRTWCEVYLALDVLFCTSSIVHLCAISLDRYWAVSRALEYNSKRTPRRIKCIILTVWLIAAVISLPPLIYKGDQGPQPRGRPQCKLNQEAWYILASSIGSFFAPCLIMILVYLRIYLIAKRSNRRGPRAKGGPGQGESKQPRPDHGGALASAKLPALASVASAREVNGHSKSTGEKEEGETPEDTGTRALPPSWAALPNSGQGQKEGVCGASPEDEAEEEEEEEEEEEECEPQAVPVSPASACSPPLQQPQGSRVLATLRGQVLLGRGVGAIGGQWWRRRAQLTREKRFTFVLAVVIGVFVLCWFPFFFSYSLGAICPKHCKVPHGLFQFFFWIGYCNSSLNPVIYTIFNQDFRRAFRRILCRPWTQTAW
Method in brief: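 Receptor expressed in CHO-K1 cells, assayed in 50 mM Tris-HCl pH 7.4 with 12.5 mM MgCl2, 1 mM EDTA and 0.2% BSA. Compounds were incubated with 2.5 nM [3H]Rauwolscine for 60 min at 25° C; 10 μM Prazosin defined non-specific binding. Filter counting gave percent inhibition of specific binding.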

[2] = biological target: T2, rat adrenergic α1B receptor (Rattus norvegicus, UniProt P15823); test: Radioligand binding, adrenergic α1B ([3H]Prazosin); settings: compound at 0.1 μM; [3H]Prazosin; repeat datapoints each shown; 0.1 µM
T2 construct: rat adrenergic α1B receptor obtained from Wistar Rat liver; from tissue; host or cells: Wistar rat liver
T2 sequence (P15823 1-515): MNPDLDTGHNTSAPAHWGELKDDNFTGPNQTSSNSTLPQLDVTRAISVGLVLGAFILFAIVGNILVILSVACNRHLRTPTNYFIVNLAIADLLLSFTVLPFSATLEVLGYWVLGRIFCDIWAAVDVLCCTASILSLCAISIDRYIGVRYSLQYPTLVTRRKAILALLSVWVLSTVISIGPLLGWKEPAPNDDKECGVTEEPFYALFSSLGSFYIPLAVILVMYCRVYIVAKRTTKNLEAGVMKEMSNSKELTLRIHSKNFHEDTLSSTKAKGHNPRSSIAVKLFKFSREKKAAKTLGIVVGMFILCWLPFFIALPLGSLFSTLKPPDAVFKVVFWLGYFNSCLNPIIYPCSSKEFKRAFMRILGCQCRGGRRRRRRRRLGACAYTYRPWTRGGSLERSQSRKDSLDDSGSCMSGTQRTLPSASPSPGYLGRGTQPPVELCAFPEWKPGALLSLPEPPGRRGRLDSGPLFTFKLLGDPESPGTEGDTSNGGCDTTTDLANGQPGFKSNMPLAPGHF
Method in brief: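 Rat α1B receptor from Wistar rat liver was incubated with 0.25 nM [3H]prazosin for 60 min at 25 °C in 50 mM Tris-HCl, pH 7.4, 0.5 mM EDTA. Non-specific binding was defined with 10 μM phentolamine. Bound radioligand was measured by filtration and counting, reported as percent inhibition of specific binding.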

[3] = Solubility in MeOH (chiral preparative HPLC data); format: physicochemical; settings: sample for chiral preparative HPLC
Description: For chiral separations, samples were dissolved in MeOH and EtOH according to the solubility of sample and filtered through 0.22μ. PTFE filters. The columns used were […]-AD; 20*250 mm, 10μ and […]-ODH; 20*250 mm, 5μ. A flow rate of 12 mL/min-17 mL/min was used according to the resolution. Alkanes such as n-Pentane, Hexane and Heptane (40%-95%) and alcohols such as EtOH, Isopropyl alcohol and t-Butanol (5%-60%) were used as mobile phase. In some cases alcohol combinations i.e. (EtOH+MeOH), (EtOH+IPA), (IPA+MeOH), (t-Butanol+MeOH), (t-Butanol+EtOH) were used instead of a single alcohol. Diethyl amine (up to 0.3%) was used as modifier in the mobile phase.
Column: Chiralcel OD-H. Column ID: 20*250 mm, 5μ. Mobile Phase:Hexane: (EtOH:MeOH 80:20)−95:5. Flow rate: 15 mL/min. Solubility: 30 mg/mL in MeOH.
Column: Chiral PAK-AD-H. Column ID: 20*250 mm, 5μ. Mobile Phase:Hexane (0.2% diethylamine):Isopropanol−93:7. Flow rate: 15 mL/min. Solubility: 40 mg/mL in MeOH.

[4] = biological target: T3, human recombinant adrenergic α2A receptor (Homo sapiens, UniProt P08913); test: Radioligand binding, adrenergic α2A ([3H]MK-912); settings: compound at 0.1 μM; [3H]MK-912; repeat datapoints each shown; 0.1 µM
T3 construct: expressed in transfected cells; host or cells: insect Sf9 cells
T3 sequence (P08913 1-465): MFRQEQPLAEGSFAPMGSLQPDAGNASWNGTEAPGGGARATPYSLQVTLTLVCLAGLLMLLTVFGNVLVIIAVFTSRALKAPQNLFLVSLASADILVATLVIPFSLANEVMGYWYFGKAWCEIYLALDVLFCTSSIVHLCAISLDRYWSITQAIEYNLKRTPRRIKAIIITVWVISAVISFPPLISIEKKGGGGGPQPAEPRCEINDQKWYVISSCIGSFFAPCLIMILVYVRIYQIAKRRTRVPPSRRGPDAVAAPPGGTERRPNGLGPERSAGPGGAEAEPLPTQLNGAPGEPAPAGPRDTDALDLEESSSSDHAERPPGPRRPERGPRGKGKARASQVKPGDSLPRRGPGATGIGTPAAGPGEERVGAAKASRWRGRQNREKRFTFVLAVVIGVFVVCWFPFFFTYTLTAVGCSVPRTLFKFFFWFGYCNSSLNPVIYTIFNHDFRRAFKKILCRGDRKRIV
Method in brief: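 Displacement of 1 nM [3H]MK-912 from receptor produced in insect Sf9 cells was measured after 60 min at 25 °C. Readout: percent inhibition of specific binding.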

SH-SY5Y cells [5] = test: Cell death (LDH release) in hydrogen peroxide-treated SH-SY5Y cells; format: cell-based; settings: LDH release normalized to vehicle (=100); hydrogen peroxide 300 μM, 24 h; compounds at 10 nM
Description: (§1) SH-SY5Y cells cultured in DMEM/F12 media supplemented with 10% FBS were seeded in 96-well microplates at 150,000 cells/cm^2. After 24 h, cells were depleted from FBS and kept in culture for 24 h before the experiment. Cells were then treated with 4-Br-A23187 (2 μM), hydrogen peroxide (300 μM) or the mitochondrial toxin rotenone (25 μM) in the presence of vehicle or Compound of the Invention for 24 h. Cell death was determined by measurements of LDH release according to the Cytotoxicity Detection KitPlus (Roche, Mannheim, Germany). Cell viability was determined by measuring the capacity of cells to metabolize MTS tetrazolium (MTS) according to the Cytotoxicity Detection KitPlus (Roche, Mannheim, Germany) and MTS reduction is assessed by the CellTiter 96® AQueous One Solution Cell Proliferation assay (Promega Corporation, Madison, Wis., USA). Compounds were screened at 10 nM, using DMSO as vehicle. Assay results for the experiments with hydrogen peroxide are presented as the LDH release (cell death) of untreated cells (control), hydrogen peroxide-treated cells (vehicle), and co-incubation of hydrogen peroxide with Compounds of the Invention treated cells normalized to the vehicle (FIG. 17A). This assay assesses the ability of the test compounds to protect against cell death that is mediated by mitochondrial dysfunction. In the assay, the calcium ionophore 4-Br-A23187 is used to challenge the cells, causing calcium levels to rise in mitochondria, which leads to depolarization and cell death. Test compounds are assessed for their ability to prevent cell death in response to challenge with 4-Br-A23187.

SH-SY5Y cells [6] = test: Cell viability (MTS reduction) in 4-Br-A23187-treated SH-SY5Y cells; format: cell-based; settings: MTS reduction capacity; 4-Br-A23187 2 μM, 24 h; compounds at 10 nM
Description: as §1, with “After” for “SH-SY5Y cells cultured in DMEM/F12 media supplemented with 10% FBS were seeded in 96-well microplates at 150,000 cells/cm^2. After”

[7] = system: SH-SY5Y cells over-expressing α-syn; test: Cell viability (MTS reduction) in SH-SY5Y cells over-expressing α-synuclein; format: cell-based; settings: Homo sapiens, 336 h, α-syn over-expression (−dox), +dox control = 100, 14 days, read-out: Relative cell viability protection
Description: Cell Culture. SH-SY5Y cells stably transfected with a doxycyline-inducible wild-type α-synuclein (α-syn) gene along with control SH-SY5Y cells over-expressing the β-galactosidase (β-gal) gene (a gift from L. Stefanis, Division of Basic Neurosciences, Biomedical Research Foundation of the Academy of Athens, Athens, Greece) are cultured as described by Vekrellis et al. (Vekrellis K, Xilouri M, Emmanouilidou E, Stefanis L. (2009). Inducible over-expression of α-syn in human neuronal cells leads to caspase-dependent non-apoptotic death. J Neurochem 109, 1348-1362). In accordance with this method, cells are cultured and maintained in RPMI 1640, 10% fetal bovine serum supplemented with 250 μg/mL G418 and 50 μg/mL Hygromycin B. Expression of α-syn is switched off in stock cultures with doxycycline (2 μg/mL). For experimental procedures, cells are plated at (4−8×10^4 cells/cm^2) and differentiated in absence of doxycycline and in the presence of 20 μM all-trans retinoic acid (RA) (Sigma, St Louis, Mo., USA).
Viability Assay: Cells are cultured in 96-well plates. After 24 h, cells are treated with RA and Compounds of Invention at 0.1 and 10 nM in the absence of doxycyline. Culture medium with RA and drugs is fully replaced after 7 days. Cell viability is measured by the release of lactate dehydrogenase (LDH) from necrotic cells into the culture medium and by measuring the capacity of cells to metabolize MTS tetrazolium (MTS) after 14 days in culture. LDH leakage is assessed according to the Cytotoxicity Detection KitPlus (Roche, Mannheim, Germany) and MTS reduction is assessed by the CellTiter 96® AQueous One Solution Cell Proliferation assay (Promega Corporation, Madison, Wis., USA).
Assay results for the experiments with α-syn over-expression are presented as the MTS reduction capacity (cell viability) of control cells (+dox), cells over-expressing α-syn (−dox), and cells over-expressing α-syn incubated with Compounds of the Invention at 0.1 nM (FIG. 18A) or 10 nM (FIG. 18B).

Row | Percentage inhibition of ligand binding, Adrenergic α2B (0.03 μM) [1] [%] | Percentage inhibition of ligand binding, Adrenergic α1B (0.1 μM) [2] [%] | Solubility [3] [mg/mL] | Percentage inhibition of ligand binding, Adrenergic α2A (0.1 μM) [4] [%] | Compound | LDH release (cell death), relative to vehicle (SH-SY5Y cells [5]) | Relative cell viability protection (SH-SY5Y cells [6]) | viability at 0.0001 µM ([7]; compounds at 0.1 nM) [%] | viability at 0.01 µM ([7]; compounds at 10 nM) [%]
1 | 63 | 61 | 30 | −8 | Cc1cnc2c(c1)c1c(n2CC(C)(O)c2ccc(F)cc2)CCN(C)C1 (single isomer, unassigned) [138a] | – | – | – | –
2 | 25 | 22 | 30 | 4 | Cc1cnc2c(c1)c1c(n2CC(C)(O)c2ccc(F)cc2)CCN(C)C1 (single isomer, unassigned) [138b] | – | – | – | –
3 | – | – | – | – | Cc1ccc2c(c1)c1c(n2CCc2ccc(C)nc2)CCN(C)C1 [Dimebon (DMB), dimebon, reference compound] | 91.15 | 0.3538 | 70.5 | 85.7
